Laboratory results published in ChEMBL document CHEMBL1151310, “Inhibition of cAMP-phosphodiesterase by biflavones of Ginkgo biloba in rat adipose tissue” (J Nat Prod, 1998).

What was measured:
Format in all cases: tissue-based
Rattus norvegicus [1] = species on record: Rattus norvegicus; assay: Inhibition of PDE in Sprague-Dawley rat epididymal adipose tissue assessed as [14C]adenosine recovery at 0.05 to 3 ug/ml by liquid scintillation counting
Rattus norvegicus [2] = species on record: Rattus norvegicus; assay: Inhibition of PDE in Sprague-Dawley rat epididymal adipose tissue assessed as [14C]adenosine recovery at 100 uM by liquid scintillation counting
Rattus norvegicus [3] = species on record: Rattus norvegicus; assay: Inhibition of PDE in Sprague-Dawley rat epididymal adipose tissue assessed as [14C]adenosine recovery at 1 mM by liquid scintillation counting
Rattus norvegicus [4] = species on record: Rattus norvegicus; assay: Inhibition of PDE in Sprague-Dawley rat epididymal adipose tissue assessed as [14C]adenosine recovery at 200 uM by liquid scintillation counting
Rattus norvegicus [5] = species on record: Rattus norvegicus; assay: (§1) Inhibition of PDE in Sprague-Dawley rat epididymal adipose tissue assessed as [14C]adenosine recovery by liquid scintillation counting; conditions: dose or concentration not given here
[6] = as §1
Rattus norvegicus [7] = species on record: Rattus norvegicus; assay: Inhibition of PDE in Sprague-Dawley rat epididymal adipose tissue assessed as [14C]adenosine recovery at 3.6 uM by liquid scintillation counting

`COc1ccc(-c2cc(=O)c3c(O)cc(O)c(-c4cc(-c5cc(=O)c6c(O)cc(OC)cc6o5)ccc4OC)c3o2)cc1` showed an inhibition (Rattus norvegicus [1]) of 10%.
`COc1ccc(Cc2nccc3cc(OC)c(OC)cc23)cc1OC` showed an inhibition (Rattus norvegicus [2]) greater than 90%.
Work on `Cn1c(=O)c2[nH]cnc2n(C)c1=O` yielded an inhibition (Rattus norvegicus [3]) greater than 90%.
Work on `O=c1c(O)c(-c2ccc(O)cc2)oc2cc(O)cc(O)c12` yielded an inhibition (Rattus norvegicus [4]) greater than 90%.
`O=c1cc(-c2ccc(O)c(-c3c(O)cc(O)c4c(=O)cc(-c5ccc(O)cc5)oc34)c2)oc2cc(O)cc(O)c12` [AMENTOFLAVONE] showed an inhibition (Rattus norvegicus [5]) of 85% and an IC50 [6] of 270 nM.
For `COc1ccc(-c2cc(=O)c3c(O)cc(O)cc3o2)cc1-c1c(O)cc(O)c2c(=O)cc(-c3ccc(O)cc3)oc12` [BILOBETIN], the inhibition (Rattus norvegicus [5]) was 84% and the IC50 [6] was 360 nM.
`COc1cc(O)c2c(=O)cc(-c3ccc(O)c(-c4c(O)cc(O)c5c(=O)cc(-c6ccc(O)cc6)oc45)c3)oc2c1` [SEQUOIAFLAVONE] showed an inhibition (Rattus norvegicus [7]) of 94% and an IC50 [6] of 1010 nM.
